From patent US10761045B2, “Sensor, sensor system, method of manufacturing sensor, and method of measuring concentration of target substance” (PHC Holdings Corporation, priority 2010, dated 2020) come the findings set out here.

The nature of series [1]: Redox / oxidation potentials stated in the description. The series is classed as physicochemical.
Series [2] can be described thus: Storage stability of reagent solution (response current of sensors made with stored vs fresh reagent solution). The series is classed as physicochemical. The note with it: additive in reagent solution C composition (PQSA, FAD-GDH); additive conc. 1.0-5.0 mM. An excerpt: A sensor having the configuration illustrated in FIG. 1 was manufactured. The detailed procedure will now be described. First, by sputtering palladium, 8 nm-thick conductive layer 3 was deposited on substrate 2 which was 30 mm in length, 7 mm in width and 0.2 mm in thickness and which contained polyethylene terephthalate as its main component. Thereafter, a 0.1 mm-width non-conductive track was formed by laser ablation, to form electrodes 31 to 33. Electrode 31 was designed to function as a working electrode, electrode 32 as a counter electrode, and electrode 33 as a sensing electrode.
Using a microsyringe, 1.2 μL of each reagent solution was applied to form reagent layer 4 in a shape of 2.2 mm diameter-circular. After formation of reagent layer 4, spacer 5 (0.145 mm thick) having a cut-out with a length of 3.4 mm a width of 1.2 mm and cover 6 were sequentially attached to the substrate having the electrodes formed thereon. In this way a sensor was manufactured that has a capillary having a volume of 0.6 μL. […]
Response current values of each sensor were measured using a series of glucose solutions of known concentrations.
By adding as an additive imidazole, histamine, histidine, 2-aminoimidazole, 4,5-bis(hydroxymethyl)imidazole, 1,2,4-triazole, 3-amino-1,2,4-triazole, 4-amino-1,2,4-triazole, 3,5-diamino-1,2,4-triazole, 2-methylimidazole, or 1,2-dimethylimidazole, reagent solutions were prepared that contain the same composition as reagent solution C except the type and concentration of the additive. The concentrations of the additives are as indicated in Tables below and the accompanying drawings.
Further, sensors were manufactured using the same reagent solutions stored at 25° C. and 5% humidity for 24 hours after preparation. […]

A short description of series [3]: Cyclic voltammetry of reagent solutions A and B (PQSA, FAD-GDH, with or without imidazole). The format is physicochemical. On the procedure: Reagent solutions A and B having the following compositions were prepared.
Additive: Imidazole (structural formula is illustrated below) (7.5 mM)
Electron acceptor: PQSA (7.5 mM)
Enzyme: FAD dependent-glucose dehydrogenase (FAD-GDH) 3.5 MU/L (liter)
Buffer solution: 100 mM sodium phosphate buffer solution (pH 7.0)
Reagent solution B has the same composition as reagent solution A except the absence of imidazole.
First, by sputtering palladium, 8 nm-thick conductive layer 3 was deposited on substrate 2 which was 30 mm in length, 7 mm in width and 0.2 mm in thickness and which contained polyethylene terephthalate as its main component. Thereafter, a 0.1 mm-width non-conductive track was formed by laser ablation, to form electrodes 31 to 33. Electrode 31 corresponds to a working electrode, and electrode 32 to a counter electrode. Spacer 5 (0.145 mm thick) having a cut-out with a length of 3.4 mm and a width of 1.2 mm and cover 6 were sequentially attached to the substrate having the electrodes formed thereon. In this way a sensor electrode was manufactured that has capillary 51 with a volume of 0.6 μL.
Cyclic voltammetry was performed for the resultant reagent solution using the aforementioned sensor electrode. As a reference electrode, a silver/silver chloride (saturated potassium chloride) electrode (hereinafter “Ag|AgCl”) was used. […]

Series [4] in a line: Stability test (exposure test) of sensor at 30° C., 80% humidity. The note with it: additive in reagent layer; additive conc. 1.0-5.0 mM.
Experimental: Sensors were manufactured in the same manner as described in section [1-5] using the reagent solutions prepared above. The sensors manufactured were exposed to an environment of high temperature and humidity (30° C., 80% relative humidity) for 24 hours. Response current values of the pre- and post-exposed sensors were measured for a series of glucose solutions of known concentrations.
Sensors were manufactured using fresh reagent solutions having the same compositions as described above. The sensors were subjected to an exposure experiment where they were allowed to stand for 24 hours at 30° C. and 80% humidity. Response current values of non-exposed sensors (i.e., sensors stored under the ambient condition (25° C., 5% humidity) for 24 hours) and the exposed sensors were measured for a series of glucose solutions of known concentrations.

Turning to `O=C1C(=O)c2cc(S(=O)(=O)O)ccc2-c2ccccc21` [9,10-phenanthrenequinone-2-sulfonic acid], the “redox potential of exemplary electron acceptors” value in series [1] was −140 mV.
In the case of `O=C1C(=O)c2ccccc2-c2ccccc21` [9,10-phenanthrenequinone], in series [1], the “redox potential of exemplary electron acceptors” value is given as −180 mV.
With Imidazole, in series [2], the “Reagent solution stability % change in response current value between before and after 24 hours storage at 25° C.” value is listed as −1%. In series [3] (21 hours at 25° C. and 5% relative humidity, FIG. 4), the “shift of the peak oxidation potential of PQSA after storage of reagent solution” value is “positive shift of the peak oxidation potential was limited”. For the same compound, the “shift of the peak potential of PQSA on addition of additive” value in series [3] (imidazole 7.5 mM, PQSA 7.5 mM, FAD-GDH, pH 7.0, FIG. 4 vs FIG. 5) is “negative shift”. Also, the “Sensor stability % change in response current value between before and after 24 hours exposure at 30° C. and 80% humidity” value in series [4] is given as −50%.
